The subject of the assay is LRF (luteinizing hormone release factor) induced luteinizing hormone (LH) release. Put plainly: In vitro LRF antagonist test in rat anterior pituitary cell cultures. It is filed as cell-based. As to conditions: LRF alone, Molar Conc. 2.5×10^-10 (stimulation control). From the text:
Hexapeptides of this invention were screened for LRF antagonist activity in vitro using rat anterior pituitary cell cultures as described by Vale et. al. [Endocrinology, 91, 562 (1972)]. The inhibition of LRF (luteinizing hormone release factor) induced luteinizing hormone (LH) release into the culture medium is the endpoint in this in vitro bioassay.

Regarding “LRF Control: luteinizing hormone releasing factor, also referred to as luteinizing hormone releasing hormone, LH-RH; stimulates secretion of luteinizing hormone (QHWSYGLRPG; Gonadoliberin-1; UniProt P01148 24-33, looked up)”, the “LH Value” worked out at 38.98 ng/mL.

Values taken from patent US4087418A, “Hexapeptides and methods for their production” (Parke, Davis & Company, priority 1976, dated 1978).
